# Experimental data from ChEMBL document CHEMBL3244027, “Syntheses, analgetic activity, and physical dependence capacity of 5-phenyl-6,7-benzomorphan derivatives” (J Med Chem, 1979).
# The source made the active and inactive calls. No cut-off for these calls is given here.
# Key:
# Mus musculus [1] = experiment: Analgetic activity against CF-1 mouse assessed as increase in reaction time at 10 mg/kg, po by heat stimulus induced tail flick response assay; assay type: functional, organism-based; design: dose 10 mg/kg
# Mus musculus [2] = experiment: Analgetic activity against CF-1 mouse assessed as increase in reaction time at 1.2 mg/kg, sc by heat stimulus induced tail flick response assay; assay type: functional, organism-based; design: dose 1.2 mg/kg
# Mus musculus [3] = experiment: Analgetic activity against CF-1 mouse assessed as increase in reaction time at 100 mg/kg, sc by heat stimulus induced tail flick response assay; assay type: functional, organism-based; design: dose 100 mg/kg
# Mus musculus [4] = experiment: Analgetic activity against CF-1 mouse assessed as increase in reaction time at 320 mg/kg, po by heat stimulus induced tail flick response assay; assay type: functional, organism-based; design: dose 320 mg/kg
# Mus musculus [5] = experiment: Analgetic activity against CF-1 mouse assessed as increase in reaction time at 30 mg/kg, sc by heat stimulus induced tail flick response assay; assay type: functional, organism-based; design: dose 30 mg/kg
# Mus musculus [6] = experiment: Analgetic activity against CF-1 mouse assessed as increase in reaction time at 4 mg/kg, sc by heat stimulus induced tail flick response assay; assay type: functional, organism-based; design: dose 4 mg/kg
# Mus musculus [7] = experiment: Analgetic activity against CF-1 mouse assessed as increase in reaction time at 30 mg/kg, po by heat stimulus induced tail flick response assay; assay type: functional, organism-based; design: dose 30 mg/kg
# Mus musculus [8] = experiment: Analgetic activity in sc dosed CF1S mouse assessed as writhing by phenylquinone writhing test; assay type: functional; details: Mus musculus, CF1S, sc; read-out: ED50
# Mus musculus [9] = experiment: Analgetic activity against CF-1 mouse assessed as increase in reaction time at 100 mg/kg, po by heat stimulus induced tail flick response assay; assay type: functional, organism-based; design: dose 100 mg/kg
# Mus musculus [10] = experiment: Analgetic activity against CF-1 mouse assessed as increase in reaction time at 50 mg/kg, sc by heat stimulus induced tail flick response assay; assay type: functional, organism-based; design: dose 50 mg/kg
# Mus musculus [11] = species: Mus musculus; experiment: Analgetic activity in naloxone challenged mouse assessed as frequency pretreated for 2 day by mouse jumping test; assay type: functional, organism-based
# Mus musculus [12] = experiment: Analgetic activity against CF-1 mouse assessed as increase in reaction time at 2.5 mg/kg, sc by heat stimulus induced tail flick response assay; assay type: functional, organism-based; design: dose 2.5 mg/kg
# Mus musculus [13] = experiment: Analgetic activity against CF-1 mouse assessed as increase in reaction time at 2 mg/kg, sc by heat stimulus induced tail flick response assay; assay type: functional, organism-based; design: dose 2 mg/kg
# Rhesus monkey = experiment: Analgetic activity in naloxone challenged monkey assessed as frequency pretreated for 2 day by mouse jumping test; assay type: functional, organism-based; details: Macaca mulatta
# Mus musculus [14] = experiment: Analgetic activity against CF-1 mouse assessed as increase in reaction time at 60 mg/kg, sc by heat stimulus induced tail flick response assay; assay type: functional, organism-based; design: dose 60 mg/kg
# Mus musculus [15] = experiment: Analgetic activity against CF-1 mouse assessed as increase in reaction time at 140 mg/kg, sc by heat stimulus induced tail flick response assay; assay type: functional, organism-based; design: dose 140 mg/kg
# Mus musculus [16] = experiment: Analgetic activity against CF-1 mouse assessed as increase in reaction time at 5 mg/kg, sc by heat stimulus induced tail flick response assay; assay type: functional, organism-based; design: dose 5 mg/kg
# Mus musculus [17] = experiment: Analgetic activity against CF-1 mouse assessed as increase in reaction time at 1.2 mg/kg, po by heat stimulus induced tail flick response assay; assay type: functional, organism-based; design: dose 1.2 mg/kg
# Mus musculus [18] = experiment: Analgetic activity against CF-1 mouse assessed as increase in reaction time at 40 mg/kg, sc by heat stimulus induced tail flick response assay; assay type: functional, organism-based; design: dose 40 mg/kg
# Mus musculus [19] = experiment: Analgetic activity against CF-1 mouse assessed as increase in reaction time at 80 mg/kg, sc by heat stimulus induced tail flick response assay; assay type: functional, organism-based; design: dose 80 mg/kg
# Mus musculus [20] = experiment: Analgetic activity against CF-1 mouse assessed as increase in reaction time at 20 mg/kg, po by heat stimulus induced tail flick response assay; assay type: functional, organism-based; design: dose 20 mg/kg
# Mus musculus [21] = experiment: Analgetic activity against CF-1 mouse assessed as increase in reaction time at 60 mg/kg, po by heat stimulus induced tail flick response assay; assay type: functional, organism-based; design: dose 60 mg/kg
# Mus musculus [22] = experiment: Analgetic activity against CF-1 mouse assessed as increase in reaction time at 10 mg/kg, sc by heat stimulus induced tail flick response assay; assay type: functional, organism-based; design: dose 10 mg/kg
# Mus musculus [23] = experiment: Analgetic activity against CF-1 mouse assessed as increase in reaction time at 80 mg/kg, po by heat stimulus induced tail flick response assay; assay type: functional, organism-based; design: dose 80 mg/kg
# Mus musculus [24] = experiment: Analgetic activity against CF-1 mouse assessed as increase in reaction time at 16 mg/kg, po by heat stimulus induced tail flick response assay; assay type: functional, organism-based; design: dose 16 mg/kg
# Mus musculus [25] = experiment: Analgetic activity in po dosed CF1S mouse assessed as writhing by phenylquinone writhing test; assay type: functional; details: Mus musculus, CF1S, po; read-out: ED50
# Mus musculus [26] = experiment: Analgetic activity against CF-1 mouse assessed as increase in reaction time at 160 mg/kg, sc by heat stimulus induced tail flick response assay; assay type: functional, organism-based; design: dose 160 mg/kg
# Mus musculus [27] = species: Mus musculus; experiment: Analgetic activity in nalorphine challenged mouse assessed as frequency pretreated for 2 day by mouse jumping test; assay type: functional, organism-based
# Mus musculus [28] = experiment: Analgetic activity against CF-1 mouse assessed as increase in reaction time at 1.5 mg/kg, sc by heat stimulus induced tail flick response assay; assay type: functional, organism-based; design: dose 1.5 mg/kg
# Mus musculus [29] = experiment: Toxicity in sc dosed CF1S mouse; assay type: organism-based; details: in vivo
smiles,measurement,setting,value
CC1C2Cc3ccc(O)cc3C1(c1ccccc1)CCN2CCc1ccc(N)cc1 (centres undefined),Activity,Mus musculus [1],Active
same,Activity,Mus musculus [2],Active
COc1ccc2c(c1)C1(c3ccccc3)CCN(C)C(C2)C1 (racemic),Activity,Mus musculus [3],inactive
COc1ccc2c(c1)C1(c3ccccc3)CCN(C)C(C2)C1 (centres undefined),Activity,Mus musculus [4],inactive
same,Activity,Mus musculus [5],inactive
CC(=O)Oc1ccc2c(c1)C1(c3ccccc3)CCN(C)C(C2)C1C (centres undefined),Activity,Mus musculus [6],Active
same,Activity,Mus musculus [1],Active
CC(=O)Oc1ccc2c(c1)C1(c3ccccc3)CCN(C(C)=O)C(C2)C1 (racemic),Activity,Mus musculus [7],inactive
same,ED50,Mus musculus [8],> 100 mg/kg
CC(=O)N1CCC2(c3ccccc3)CC1Cc1ccc(O)cc12 (racemic),Activity,Mus musculus [9],inactive
same,ED50,Mus musculus [8],> 100 mg/kg
CC1C2Cc3ccc(O)cc3C1(c1ccccc1)CCN2CCCC(=O)c1ccc(F)cc1.Cl.O (centres undefined),Activity,Mus musculus [10],inactive
same,ED50,Mus musculus [8],> 100 mg/kg
same,Activity,Mus musculus [11],inactive
CC1C2Cc3ccc(OC(=O)CCl)cc3C1(c1ccccc1)CCN2C (centres undefined),Activity,Mus musculus [12],Active
C[C@@H]1C2Cc3ccc(O)cc3C1(c1ccccc1)CCN2C (some centres undefined),Activity,Mus musculus [13],Active
same,Activity,Rhesus monkey,Active
CC1C2Cc3ccc(OC(=O)c4ccc(Cl)cc4)cc3C1(c1ccccc1)CCN2C (centres undefined),Activity,Mus musculus [2],Active
CN1CCC2(c3ccccc3)CC1Cc1ccc(O)cc12 (stereo in doubt; 43),Activity,Mus musculus [14],inactive
CCN1CCC2(c3ccccc3)c3cc(O)ccc3CC1C2C (centres undefined),Activity,Mus musculus [15],Active
CC1C2Cc3ccc(OC(=O)c4ccc(Br)cc4)cc3C1(c1ccccc1)CCN2C (centres undefined),Activity,Mus musculus [16],Active
same,Activity,Mus musculus [17],Active
CCN1CCC2(c3ccccc3)CC1Cc1ccc(O)cc12 (racemic),Activity,Mus musculus [5],inactive
same,ED50,Mus musculus [8],> 30 mg/kg
CC(=O)Oc1ccc2c(c1)C1(c3ccc(Cl)cc3)CCN(C#N)C(C2)C1 (racemic),Activity,Mus musculus [9],inactive
same,ED50,Mus musculus [8],> 100 mg/kg
COc1ccc2c(c1)C1(c3ccccc3)CCN(C)C(C2)C1C (centres undefined),Activity,Mus musculus [18],Active
same,Activity,Mus musculus [19],Active
same,Activity,Mus musculus [20],Active
CN(C)C(=O)CCN1CCC2(c3ccccc3)CC1Cc1ccc(O)cc12 (racemic),Activity,Mus musculus [10],inactive
Oc1ccc2c(c1)C1(c3ccccc3)CCN(CC3CC3)C(C2)C1 (racemic),Activity,Rhesus monkey,inactive
CC(=O)Oc1ccc2c(c1)C1(c3ccc(Cl)cc3)CCN(C)C(C2)C1 (racemic),Activity,Mus musculus [3],Active
same,ED50,Mus musculus [8],20 mg/kg
O=C(Oc1ccc2c(c1)C1(c3ccccc3)CCN(C(=O)C3CC3)C(C2)C1)C1CC1 (racemic),Activity,Mus musculus [21],inactive
same,ED50,Mus musculus [8],> 100 mg/kg
CC1C2Cc3ccc(O)cc3C1(c1ccc(Cl)cc1)CCN2C (racemic),Activity,Mus musculus [22],Active
same,Activity,Mus musculus [20],Active
CC1C2Cc3ccc(OC(=O)c4ccco4)cc3C1(c1ccccc1)CCN2C(=O)c1ccco1 (centres undefined),Activity,Mus musculus [21],inactive
CC1C2Cc3ccc(O)cc3C1(c1ccccc1)CCN2CCc1ccccc1 (centres undefined),Activity,Mus musculus [23],Active
same,Activity,Mus musculus [22],Active
Oc1ccc2c(c1)C1(c3ccccc3)CCN(CC3CCC3)C(C2)C1 (racemic),Activity,Rhesus monkey,inactive
CN1CC[C@]23c4c5ccc(O)c4O[C@H]2[C@@H](O)C=C[C@H]3[C@H]1C5 [MORPHINE],Activity,Mus musculus [6],Active
same,Activity,Mus musculus [24],Active
same,ED50,Mus musculus [25],8.9 mg/kg
same,Activity,Mus musculus [11],Active
CCCCCN1CCC2(c3ccccc3)c3cc(O)ccc3CC1C2C (centres undefined),Activity,Mus musculus [26],Active
same,Activity,Mus musculus [12],Active
CCCC(=O)Oc1ccc2c(c1)C1(c3ccccc3)CCN(C)C(C2)C1C (centres undefined),Activity,Mus musculus [1],Active
same,Activity,Mus musculus [20],Active
COCOc1ccc2c(c1)C1(c3ccccc3)CCN(C)C(C2)C1C (centres undefined),Activity,Mus musculus [16],Active
same,Activity,Mus musculus [20],Active
CC1C2Cc3ccc(OC(=O)C4CCC4)cc3C1(c1ccccc1)CCN2C (centres undefined),Activity,Mus musculus [20],Active
same,Activity,Mus musculus [12],Active
CC1C2Cc3ccc(OC(=O)c4cccc([N+](=O)[O-])c4)cc3C1(c1ccccc1)CCN2C (centres undefined),Activity,Mus musculus [2],Active
same,Activity,Mus musculus [27],Active
CCCCC(=O)Oc1ccc2c(c1)C1(c3ccccc3)CCN(C)C(C2)C1C (centres undefined),Activity,Mus musculus [1],Active
same,Activity,Mus musculus [28],Active
Oc1ccc2c(c1)C1(c3ccccc3)CCN(CC3CC3)C(C2)C1 (centres undefined),Activity,Mus musculus [29],Toxic
CC1C2Cc3ccc(OC(=O)c4cccc(Cl)c4)cc3C1(c1ccccc1)CCN2C (centres undefined),Activity,Mus musculus [2],Active
CC1C2Cc3ccc(O)cc3C1(c1ccc(F)cc1)CCN2C (racemic),Activity,Mus musculus [1],Active
same,Activity,Mus musculus [12],Active
CC(O)C(=O)O.CC1C2Cc3ccc(O)cc3C1(c1ccccc1)CCN2CCCCc1ccccc1 (centres undefined),Activity,Mus musculus [3],inactive
same,ED50,Mus musculus [25],> 100 mg/kg
CCC(=O)Oc1ccc2c(c1)C1(c3ccccc3)CCN(C)C(C2)C1C (centres undefined),Activity,Mus musculus [12],Active
